In publication PMC9133015 (Nature Communications, 2022):
“And” between values parts separate entries of the source, which are not always exact repeats. Equal values may be shown once.

Columns and labels:
Test in all cases: Kinase inhibitor specificity profiling (Reaction Biology Corporation)
Type in all cases: biochemical
Set-up in all cases: % Enzyme Activity (relative to DMSO controls): concentration or dose not given beside the values
[1] = target: T1, panel of 370 protein kinases (Homo sapiens, UniProt P29323); details: kinase EPHB2
T1 construct: purchased Reaction Biology Corporation (assay service)

[2] = target: T2, panel of 370 protein kinases (Homo sapiens, UniProt P06213); details: 2 h, kinase IR; read-out: % Enzyme Activity (relative to DMSO controls)
T2 construct: purchased Reaction Biology Corporation (assay service)

[3] = target: T3, panel of 370 protein kinases (Homo sapiens, UniProt P17612); details: 2 h, kinase PKA; read-out: % Enzyme Activity (relative to DMSO controls)
T3 construct: purchased Reaction Biology Corporation (assay service)

[4] = target: T4, panel of 370 protein kinases (Homo sapiens, UniProt P42684); details: 2 h, kinase ABL2/ARG; read-out: % Enzyme Activity (relative to DMSO controls)
T4 construct: purchased Reaction Biology Corporation (assay service)

[5] = target: T5, panel of 370 protein kinases (Homo sapiens, UniProt Q15303); details: 2 h, kinase ERBB4/HER4; read-out: % Enzyme Activity (relative to DMSO controls)
T5 construct: purchased Reaction Biology Corporation (assay service)

[6] = target: T6, panel of 370 protein kinases (Homo sapiens, UniProt O00444); details: 2 h, kinase PLK4/SAK; read-out: % Enzyme Activity (relative to DMSO controls)
T6 construct: purchased Reaction Biology Corporation (assay service)

[7] = target: T7, panel of 370 protein kinases (Homo sapiens, UniProt P15056); details: 2 h, kinase BRAF; read-out: % Enzyme Activity (relative to DMSO controls)
T7 construct: purchased Reaction Biology Corporation (assay service)

[8] = target: T8, panel of 370 protein kinases (Homo sapiens, UniProt P51817); details: 2 h, kinase PRKX; read-out: % Enzyme Activity (relative to DMSO controls)
T8 construct: purchased Reaction Biology Corporation (assay service)

[9] = target: T9, panel of 370 protein kinases (Homo sapiens, UniProt P19784); details: 2 h, kinase CK2a2; read-out: % Enzyme Activity (relative to DMSO controls)
T9 construct: purchased Reaction Biology Corporation (assay service)

[10] = target: T10, panel of 370 protein kinases (Homo sapiens, UniProt Q9Y2H1); details: 2 h, kinase STK38L/NDR2; read-out: % Enzyme Activity (relative to DMSO controls)
T10 construct: purchased Reaction Biology Corporation (assay service)

[11] = target: T11, panel of 370 protein kinases (Homo sapiens, UniProt P14616); details: 2 h, kinase IRR/INSRR; read-out: % Enzyme Activity (relative to DMSO controls)
T11 construct: purchased Reaction Biology Corporation (assay service)

[12] = target: T12, panel of 370 protein kinases (Homo sapiens, UniProt O14578); details: kinase STK21/CIT
T12 construct: purchased Reaction Biology Corporation (assay service)

[13] = target: T13, panel of 370 protein kinases (Homo sapiens, UniProt P10721); details: 2 h, kinase c-Kit; read-out: % Enzyme Activity (relative to DMSO controls)
T13 construct: purchased Reaction Biology Corporation (assay service)

[14] = target: T14, panel of 370 protein kinases (Homo sapiens, UniProt P29376); details: 2 h, kinase TYK1/LTK; read-out: % Enzyme Activity (relative to DMSO controls)
T14 construct: purchased Reaction Biology Corporation (assay service)

[15] = target: T15, panel of 370 protein kinases (Homo sapiens, UniProt Q04771); details: 2 h, kinase ALK2/ACVR1; read-out: % Enzyme Activity (relative to DMSO controls)
T15 construct: purchased Reaction Biology Corporation (assay service)

[16] = target: T16, panel of 370 protein kinases (Homo sapiens, UniProt P42685); details: 2 h, kinase FRK/PTK5; read-out: % Enzyme Activity (relative to DMSO controls)
T16 construct: purchased Reaction Biology Corporation (assay service)

[17] = target: T17, panel of 370 protein kinases (Homo sapiens, UniProt Q92630); details: 2 h, kinase DYRK2; read-out: % Enzyme Activity (relative to DMSO controls)
T17 construct: purchased Reaction Biology Corporation (assay service)

[18] = target: T18, panel of 370 protein kinases (Homo sapiens, UniProt P57078); details: 2 h, kinase RIPK4; read-out: % Enzyme Activity (relative to DMSO controls)
T18 construct: purchased Reaction Biology Corporation (assay service)

[19] = target: T19, panel of 370 protein kinases (Homo sapiens, UniProt Q9UK32); details: kinase RSK4
T19 construct: purchased Reaction Biology Corporation (assay service)

[20] = target: T20, panel of 370 protein kinases (Homo sapiens, UniProt Q96L34); details: kinase MARK4
T20 construct: purchased Reaction Biology Corporation (assay service)

[21] = target: T21, panel of 370 protein kinases (Homo sapiens, UniProt P78368); details: kinase CK1g2
T21 construct: purchased Reaction Biology Corporation (assay service)

[22] = target: T22, panel of 370 protein kinases (Homo sapiens, UniProt Q9BYT3); details: 2 h, kinase STK33; read-out: % Enzyme Activity (relative to DMSO controls)
T22 construct: purchased Reaction Biology Corporation (assay service)

T1 sequence (P29323 19-1055): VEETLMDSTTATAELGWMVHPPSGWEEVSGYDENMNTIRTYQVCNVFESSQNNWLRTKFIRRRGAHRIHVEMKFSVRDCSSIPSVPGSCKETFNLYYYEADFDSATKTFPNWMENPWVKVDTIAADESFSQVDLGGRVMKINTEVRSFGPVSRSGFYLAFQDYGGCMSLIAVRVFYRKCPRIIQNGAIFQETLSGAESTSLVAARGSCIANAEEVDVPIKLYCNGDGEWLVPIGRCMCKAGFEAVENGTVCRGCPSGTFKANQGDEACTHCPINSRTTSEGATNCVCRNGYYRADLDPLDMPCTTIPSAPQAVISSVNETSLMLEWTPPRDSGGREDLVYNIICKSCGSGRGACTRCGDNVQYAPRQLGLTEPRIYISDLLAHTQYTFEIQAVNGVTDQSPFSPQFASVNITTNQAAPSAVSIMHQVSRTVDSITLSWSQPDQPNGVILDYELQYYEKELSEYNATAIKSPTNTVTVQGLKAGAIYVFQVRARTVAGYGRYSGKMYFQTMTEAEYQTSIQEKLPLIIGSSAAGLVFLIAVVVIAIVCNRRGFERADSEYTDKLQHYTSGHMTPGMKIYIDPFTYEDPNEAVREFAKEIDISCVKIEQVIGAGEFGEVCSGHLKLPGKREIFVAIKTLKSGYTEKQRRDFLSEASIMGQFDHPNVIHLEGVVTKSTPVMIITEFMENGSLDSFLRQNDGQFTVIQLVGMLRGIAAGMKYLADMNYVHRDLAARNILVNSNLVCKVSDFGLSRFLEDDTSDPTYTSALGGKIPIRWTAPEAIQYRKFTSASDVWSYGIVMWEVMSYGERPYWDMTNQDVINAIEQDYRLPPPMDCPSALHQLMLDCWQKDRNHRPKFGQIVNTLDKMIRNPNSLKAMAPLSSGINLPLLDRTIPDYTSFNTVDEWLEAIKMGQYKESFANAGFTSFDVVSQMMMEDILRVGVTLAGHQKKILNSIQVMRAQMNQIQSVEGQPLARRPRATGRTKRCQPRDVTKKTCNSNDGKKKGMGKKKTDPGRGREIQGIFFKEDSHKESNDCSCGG
T12 sequence (O14578 whole entry): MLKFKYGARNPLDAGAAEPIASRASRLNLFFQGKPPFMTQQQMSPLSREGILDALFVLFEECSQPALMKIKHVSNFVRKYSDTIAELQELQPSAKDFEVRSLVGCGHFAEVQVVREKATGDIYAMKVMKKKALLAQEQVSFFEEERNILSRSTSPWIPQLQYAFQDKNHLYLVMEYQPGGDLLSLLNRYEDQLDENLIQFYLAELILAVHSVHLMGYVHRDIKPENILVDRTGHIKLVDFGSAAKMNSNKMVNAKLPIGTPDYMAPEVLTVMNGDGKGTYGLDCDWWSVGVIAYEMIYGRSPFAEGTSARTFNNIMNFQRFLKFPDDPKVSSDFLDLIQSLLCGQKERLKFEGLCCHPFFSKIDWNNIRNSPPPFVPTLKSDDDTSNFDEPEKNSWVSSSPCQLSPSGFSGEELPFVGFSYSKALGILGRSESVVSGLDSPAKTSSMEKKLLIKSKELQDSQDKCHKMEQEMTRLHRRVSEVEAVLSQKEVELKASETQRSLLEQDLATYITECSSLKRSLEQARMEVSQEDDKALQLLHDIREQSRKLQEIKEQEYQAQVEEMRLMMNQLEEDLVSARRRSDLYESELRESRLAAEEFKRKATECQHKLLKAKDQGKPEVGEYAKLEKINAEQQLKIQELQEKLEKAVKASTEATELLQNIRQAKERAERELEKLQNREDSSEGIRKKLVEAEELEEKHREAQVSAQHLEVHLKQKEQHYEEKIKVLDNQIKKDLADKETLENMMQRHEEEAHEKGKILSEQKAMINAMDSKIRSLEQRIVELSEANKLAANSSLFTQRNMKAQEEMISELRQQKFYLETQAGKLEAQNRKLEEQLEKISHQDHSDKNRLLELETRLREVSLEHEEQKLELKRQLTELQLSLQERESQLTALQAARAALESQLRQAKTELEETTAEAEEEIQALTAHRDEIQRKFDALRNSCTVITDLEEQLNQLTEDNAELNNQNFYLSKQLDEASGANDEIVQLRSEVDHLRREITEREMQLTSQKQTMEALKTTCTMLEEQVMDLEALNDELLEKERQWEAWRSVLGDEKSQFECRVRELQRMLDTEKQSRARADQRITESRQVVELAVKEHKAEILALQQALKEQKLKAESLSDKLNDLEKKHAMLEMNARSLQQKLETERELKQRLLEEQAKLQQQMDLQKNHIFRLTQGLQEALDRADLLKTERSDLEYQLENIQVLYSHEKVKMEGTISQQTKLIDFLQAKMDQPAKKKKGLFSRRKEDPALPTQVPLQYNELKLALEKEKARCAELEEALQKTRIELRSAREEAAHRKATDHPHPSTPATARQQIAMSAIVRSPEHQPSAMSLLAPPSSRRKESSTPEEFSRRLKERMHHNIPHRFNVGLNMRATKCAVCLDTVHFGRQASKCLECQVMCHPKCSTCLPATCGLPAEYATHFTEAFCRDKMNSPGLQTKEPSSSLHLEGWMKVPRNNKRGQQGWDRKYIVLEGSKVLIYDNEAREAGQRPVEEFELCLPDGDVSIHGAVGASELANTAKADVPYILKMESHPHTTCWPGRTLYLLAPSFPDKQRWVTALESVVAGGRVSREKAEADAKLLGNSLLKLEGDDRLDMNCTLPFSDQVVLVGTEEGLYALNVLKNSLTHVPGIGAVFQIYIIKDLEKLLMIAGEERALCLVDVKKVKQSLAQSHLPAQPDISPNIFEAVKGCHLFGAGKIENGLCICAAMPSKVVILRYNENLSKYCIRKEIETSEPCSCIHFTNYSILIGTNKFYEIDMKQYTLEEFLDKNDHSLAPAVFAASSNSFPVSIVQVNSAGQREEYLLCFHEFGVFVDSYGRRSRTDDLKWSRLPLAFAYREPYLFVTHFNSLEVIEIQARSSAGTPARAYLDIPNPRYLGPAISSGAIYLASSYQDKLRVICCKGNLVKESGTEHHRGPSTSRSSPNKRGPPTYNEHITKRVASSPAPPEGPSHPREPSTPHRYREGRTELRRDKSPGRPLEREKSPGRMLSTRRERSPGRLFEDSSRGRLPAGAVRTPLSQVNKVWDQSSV
T21 sequence (P78368 whole entry): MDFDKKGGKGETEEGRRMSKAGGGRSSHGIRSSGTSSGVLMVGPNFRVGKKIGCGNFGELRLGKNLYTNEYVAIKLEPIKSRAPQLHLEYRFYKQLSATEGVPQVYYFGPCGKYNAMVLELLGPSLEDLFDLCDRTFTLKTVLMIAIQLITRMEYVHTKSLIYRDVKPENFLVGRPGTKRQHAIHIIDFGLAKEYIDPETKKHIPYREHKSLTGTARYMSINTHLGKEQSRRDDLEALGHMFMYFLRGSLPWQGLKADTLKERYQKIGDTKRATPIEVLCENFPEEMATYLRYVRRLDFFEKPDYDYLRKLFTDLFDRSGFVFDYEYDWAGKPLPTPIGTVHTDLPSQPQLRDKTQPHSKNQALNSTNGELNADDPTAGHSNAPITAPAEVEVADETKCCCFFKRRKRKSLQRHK
T20 sequence (Q96L34 whole entry): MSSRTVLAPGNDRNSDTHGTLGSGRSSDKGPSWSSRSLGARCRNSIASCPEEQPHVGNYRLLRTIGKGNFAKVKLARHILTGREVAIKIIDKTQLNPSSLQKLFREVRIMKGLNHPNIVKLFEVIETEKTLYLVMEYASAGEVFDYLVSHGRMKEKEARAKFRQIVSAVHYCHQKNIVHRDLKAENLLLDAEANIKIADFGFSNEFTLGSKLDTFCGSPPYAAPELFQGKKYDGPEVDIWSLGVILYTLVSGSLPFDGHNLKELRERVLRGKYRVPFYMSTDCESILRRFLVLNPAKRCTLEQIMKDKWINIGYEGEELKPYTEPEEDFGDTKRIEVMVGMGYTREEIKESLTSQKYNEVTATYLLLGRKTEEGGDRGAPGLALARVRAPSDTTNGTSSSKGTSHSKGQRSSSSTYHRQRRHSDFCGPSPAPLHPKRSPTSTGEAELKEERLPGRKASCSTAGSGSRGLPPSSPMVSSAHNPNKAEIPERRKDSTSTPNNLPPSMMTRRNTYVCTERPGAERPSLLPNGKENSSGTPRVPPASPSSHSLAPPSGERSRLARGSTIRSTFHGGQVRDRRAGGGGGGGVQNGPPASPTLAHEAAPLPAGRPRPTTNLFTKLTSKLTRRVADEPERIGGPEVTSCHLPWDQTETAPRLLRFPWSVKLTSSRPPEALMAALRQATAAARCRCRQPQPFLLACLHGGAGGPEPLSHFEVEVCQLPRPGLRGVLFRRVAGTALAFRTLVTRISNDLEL
T19 sequence (Q9UK32 whole entry): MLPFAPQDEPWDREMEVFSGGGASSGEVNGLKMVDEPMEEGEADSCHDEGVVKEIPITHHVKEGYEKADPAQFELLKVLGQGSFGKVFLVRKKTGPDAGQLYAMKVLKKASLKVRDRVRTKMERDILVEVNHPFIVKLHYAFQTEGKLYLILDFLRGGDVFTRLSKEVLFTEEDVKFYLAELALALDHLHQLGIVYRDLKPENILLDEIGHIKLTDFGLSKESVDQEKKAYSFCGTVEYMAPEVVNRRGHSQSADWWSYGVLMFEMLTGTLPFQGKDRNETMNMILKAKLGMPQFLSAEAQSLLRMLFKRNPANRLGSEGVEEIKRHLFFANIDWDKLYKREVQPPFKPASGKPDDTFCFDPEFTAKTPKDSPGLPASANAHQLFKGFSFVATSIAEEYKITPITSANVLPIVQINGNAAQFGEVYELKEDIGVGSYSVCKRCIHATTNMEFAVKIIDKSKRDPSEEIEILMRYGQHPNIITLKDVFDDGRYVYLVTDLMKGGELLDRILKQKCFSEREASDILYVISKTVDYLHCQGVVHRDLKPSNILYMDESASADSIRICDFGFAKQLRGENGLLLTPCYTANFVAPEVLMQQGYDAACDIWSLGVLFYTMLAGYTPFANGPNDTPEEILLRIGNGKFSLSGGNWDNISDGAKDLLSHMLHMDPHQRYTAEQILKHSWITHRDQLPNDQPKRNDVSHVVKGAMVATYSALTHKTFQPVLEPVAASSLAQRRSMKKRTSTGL

Question: CCN1CCN(C(=O)c2ccc(Nc3ncc(F)c(-c4ccc5nc(N(C)C)sc5c4)n3)nc2)CC1 [YK-2-69] was tested. Which “% Enzyme Activity (relative to DMSO controls)” value [1] did it give?
Answer: 102.42% and 102.08%

Question: And the remaining activity at 1 µM [2]?
Answer: 99.4%

Question: And the remaining activity at 1 µM [3]?
Answer: 98.7%

Question: What about the remaining activity at 1 µM [4] of the same compound?
Answer: 91.2%

Question: And the remaining activity at 1 µM [5]?
Answer: 88.5%

Question: And the remaining activity at 1 µM [6]?
Answer: 72.6%

Question: What about the remaining activity at 1 µM [7] of the same compound?
Answer: 95.2%

Question: And the remaining activity at 1 µM [8]?
Answer: 95.1%

Question: And the remaining activity at 1 µM [9]?
Answer: 51.4%

Question: What about the remaining activity at 1 µM [10] of the same compound?
Answer: 95.4%

Question: And the remaining activity at 1 µM [11]?
Answer: 91.8%

Question: What about the “% Enzyme Activity (relative to DMSO controls)” value [12] of the same compound?
Answer: 95.11% and 94.67%

Question: And the remaining activity at 1 µM [13]?
Answer: 94%

Question: And the remaining activity at 1 µM [14]?
Answer: 109%

Question: And the remaining activity at 1 µM [15]?
Answer: 160%

Question: What about the remaining activity at 1 µM [16] of the same compound?
Answer: 108%

Question: What about the remaining activity at 1 µM [17] of the same compound?
Answer: 5.23%

Question: And the remaining activity at 1 µM [18]?
Answer: 92%

Question: What about the “% Enzyme Activity (relative to DMSO controls)” value [19] of the same compound?
Answer: 87.21% and 86.27%

Question: What about the “% Enzyme Activity (relative to DMSO controls)” value [20] of the same compound?
Answer: 79.55% and 79.20%

Question: What about the “% Enzyme Activity (relative to DMSO controls)” value [21] of the same compound?
Answer: 92.19% and 91.13%

Question: And the remaining activity at 1 µM [22]?
Answer: 80.1%
